In brackets after ≈: the same amount, converted by molar mass. Like-named read-outs stand apart in the source and are kept apart here. A value given as a limit tells only on which side of the number the result lay.

We go through 5 compounds from publication PMC10515590 (ACS Omega, 2023).

For data set [1] the following is noted: cited from earlier work.
Data set [2] in a line: Shake flask solubility in pH 6.8 phosphate buffer. It counts as physicochemical.
Data set [3] is described as follows: Powder dissolution, USP apparatus II. The conditions noted are these: pH 6.8. It counts as physicochemical.
A short description of data set [4]: Pharmacokinetic study after oral administration. It counts as in vivo, BALB/c mice. Particulars: female, BALB/c, mouse, plasma, 30 mg/kg.
For data set [5] the following is noted: after oral administration; cited from earlier work.
The mark [6] stands for this setting: first pKa, 24 for cocrystal coformers.

For `O=C(O)CCCC(=O)O` [glutaric acid], the solubility of coformer in data set [1] (highly soluble coformers) was 1600 mg/mL.
What is called solubility is the dissolved amount per volume that the medium holds. Low values mean a poorly soluble substance, high ones a readily soluble substance. One may read the AUC(0-t) as exposure summed from dosing to a finite time, without extrapolation to infinity. Lower therefore signals low exposure. Usually Cmax stands for the peak of the concentration-time curve. Broadly, the aqueous solubility is the dissolved amount per volume that the medium holds. For orientation: pKa means the negative logarithm of the acid dissociation constant. In data set [2], `Oc1ncnc2[nH]ncc12` [ALO, 1H-pyrazolo[3,4-d]pyrimidine-4(2H)-one] came in with a solubility at 4 h of 0.687 mg/mL (≈ 5.05 mM). In data set [3], this compound returned a solubility at 1 h of 0.676 mg/mL (≈ 4.97 mM). In data set [4], this compound showed an AUC(0-t) of 36900 ng·h/mL and a Cmax of 7010 ± 187 ng/mL. In addition, the “time within which the drug is metabolized” value in data set [5] was no more than 2 h. Further, in data set [1], the aqueous solubility is 0.8 mg/mL (≈ 5.88 mM). In addition, the pKa in data set [1] (setting [6]) was 10.1.
Regarding `O=C(O)c1ccnc(C(=O)O)c1` [pyridine 2,4-dicarboxylic acid], the pKa in data set [1] (setting [6]) is recorded as 2.15.
Take `O=C(O)c1ccc(O)cc1O` [2,4-dihydroxybenzoic acid]: the pKa in data set [1] (second pKa, ref 24 for 2,4-dihydroxybenzoic acid) is recorded as 8.5.
A word on the log P: it is the decadic logarithm of the partition coefficient of the neutral form, usually between octanol and water. For the compound `O=C(O)c1c(O)cccc1O` [2,6-dihydroxybenzoic acid], the “log P” value in data set [1] (coformers) is recorded as 2.14.
